# Results: patent publication US8372811B2, “Composition for treating retinopathy or glaucoma comprising thrombin derived peptides” (Eyegene, Inc., priority 2007, dated 2013)
# Entries after “also recorded” stand apart in the source; their conditions may differ. Non-standard residues stand in square brackets, D forms with d. No end group written: not given here.
# Test system: mouse retinal angiogenesis
# Assay: Mouse model for inducing retinal angiogenesis using oxygen partial pressure (75% oxygen, then normal 20%); FITC-dextran fluorescence microscopy of retina
# Type: in vivo
# Conditions: intraperitoneally; for retinal blood vessels observed (Example 2): FIG. 4; for retinal blood vessels observed (Example 2) / retinal blood vessels observed (Example 3): dose not given; for effect compared between polypeptides SEQ ID NOs: 1, 2 and SEQ ID NO: 3 (Example 2): FIG. 4 versus FIG. 2; for retinal blood vessels observed (Example 3): FIG. 2 and FIG. 5
# Description: For this purpose, a mouse was kept for 5 days under a high oxygen environment with a constant 75% oxygen partial pressure 7 days after the mouse was born in an apparatus that can adjust an oxygen partial pressure, and then kept under a 20% oxygen pressure which is a normal oxygen partial pressure. […] In order to observe the blood vessels, 50 mg of FITC-dextran having a molecular weight of 2×10^6 was dissolved in 1 ml of saline, and the resultant solution was injected through the left ventricle. The mouse eyeball was extracted immediately after the injection. The extracted eyeball was washed with saline, fixed with 1% paraformaldehyde for 4 to 24 hours, and then a lens was removed from the eyeball. Then, the resultant mouse retina was evenly spread over a glass slide, and the glass slide was sealed with glycerine-gelatin, and then observed using a fluorescence microscope. The degree on abnormal vessel, avascular lesion and vascular leakage caused by the retinopathy was digitalized and the retinopathy score was compared.
Substance,retinal blood vessels observed (Example 2),"effect compared between polypeptides SEQ ID NOs: 1, 2 and SEQ ID NO: 3 (Example 2)",effect compared with TP508 (SEQ ID NO: 3) (Example 3),retinal blood vessels observed (Example 3)
Cyclo(-Arg-Gly-Asp-D-Phe-Val) (cyclo(RGD[dF]V)) [SEQ ID NO: 1],normal angiogenesis is induced but abnormal angiogenesis is suppressed; also recorded: the abnormal angiogenesis was decreased and the normal blood vessels were observed,the same advantageous effect,–,–
H-Gly-Phe-Gly-Arg-Gly-Asp-Ser-Pro-Cys-Ala-OH (H-GFGRGDSPCA-OH) [SEQ ID NO: 2],normal angiogenesis is induced but abnormal angiogenesis is suppressed; also recorded: the abnormal angiogenesis was decreased and the normal blood vessels were observed,the same advantageous effect,–,–
Thrombin [SEQ ID NO: 4],–,–,had a similar effect as the TP508,"normal angiogenesis is induced but abnormal angiogenesis is suppressed and the vascular leakage is decreased; also recorded: the abnormal angiogenesis, avascular lesion and vascular leakage were decreased and the normal blood vessels were observed"
"DEGKRGDGDACEGDS [SEQ ID NO: 6, smaller peptide than the TP508; chemical synthesis]",–,–,had a similar effect as the TP508,"normal angiogenesis is induced but abnormal angiogenesis is suppressed and the vascular leakage is decreased; also recorded: the abnormal angiogenesis, avascular lesion and vascular leakage were decreased and the normal blood vessels were observed"
